Entries after “also recorded” stand apart in the source; their conditions may differ. Like-named read-outs stand apart in the source and are kept apart here. Each block holds one compound with its values, some of them ahead of it.
Key:
[1] = test system: Human promyelocytic leukemia (HL60) cells; experiment: HL-60 differentiation (nitro blue tetrazolium reduction); type: cell-based; settings: concentration 1×10^−7 M
Outline: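 Four-day drug treatment of cells grown in RPMI-1640/10% FBS at 37 °C, 5% CO2, ethanol ≦0.2%; then NBT reduction, percent of 200 cells with black-blue formazan.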

[2] = Intestinal calcium transport (everted gut sac); type: in vivo; settings: result in words, vitamin D deficient rat model, compared to 1α,25(OH)2D3
Outline: (§1)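 Male weanling Sprague-Dawley rats, vitamin D-deficient, cycled through 0.47% and 0.02% Ca diets, dosed during the last 0.02% Ca week. Four ip doses ~24 h apart; serum calcium measured 24 h after last dose. First 10 cm of intestine taken for everted gut sac calcium transport.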

[3] = Bone calcium mobilization (serum calcium on low calcium diet); type: in vivo, rat; settings: result in words, vitamin D deficient rat model, compared to 1α,25(OH)2D3
Outline: as §1

[4] = Hypercalcemia / serum calcium analysis; type: in vivo, rat; settings: normal vitamin D sufficient rats, very high oral doses
[5] = test system: 3T3-L1 cells; experiment: Inhibition of 3T3-L1 differentiation into mature adipocytes (Oil-Red-O staining); type: cell-based, murine; settings: for inhibition of differentiation of 3T3-L1 cells into mature adipocytes (Oil-Red-O staining): result in words, MDI-treated cells, staining at day 10
[6] = test system: SCD-1 mRNA; experiment: Inhibition of SCD-1 mRNA induction in 3T3-L1 cells (RT-PCR); type: cell-based, murine; settings: for EC50: Mus musculus, 3T3-L1, 96 h, read-out: EC50 for inhibition of murine 3T3-L1 expression of SCD-1 mRNA; for inhibition of SCD-1 mRNA induction: result in words, MDI-treated 3T3-L1 cells
Description: Chomczynski, P. et al., Anal. […] NO: 4)).

[7] = test system: PPARγ2 mRNA; experiment: PPARγ2 mRNA induction by MDI in 3T3-L1 cells (RT-PCR); type: cell-based, murine; settings: compound present at 1×10^−8 M
Method: RT-PCR was carried out as described above with 0.5 μM each primer, 2 mM MgCl2, and 1×SYBR Green master mix.

[8] = test system: C/EBPα mRNA; experiment: C/EBPα mRNA induction by MDI in 3T3-L1 cells (RT-PCR); type: cell-based, murine; settings: compound present at 1×10^−8 M
Method: Analysis of C/EBPα was determined by PCR using murine primers (upstream=CGA GTA GGG GGA GCA AAA A (SEQ ID NO: 7); downstream=GCA AAA AGC MG GGA TTA GGA G (SEQ ID NO: 8)). RT-PCR was carried out as described above with 0.5 μM each primer, 2 mM MgCl2, and 1×SYBR Green master mix. The murine C/EBPα primers have a 60° C. annealing temperature and a 12 second extension time.

[9] = target: T1, full-length recombinant rat vitamin D receptor (Rattus norvegicus, UniProt P13053); experiment: Vitamin D receptor binding (competition with 3H-1,25(OH)2D3); settings: result in words, competition for tritiated hormone binding
T1 construct: Full-length recombinant rat receptor was expressed in E. coli; histidine tag (C); made in house; host or cells: E. coli BL21(DE3) Codon Plus RIL
T1 sequence (P13053 1-423): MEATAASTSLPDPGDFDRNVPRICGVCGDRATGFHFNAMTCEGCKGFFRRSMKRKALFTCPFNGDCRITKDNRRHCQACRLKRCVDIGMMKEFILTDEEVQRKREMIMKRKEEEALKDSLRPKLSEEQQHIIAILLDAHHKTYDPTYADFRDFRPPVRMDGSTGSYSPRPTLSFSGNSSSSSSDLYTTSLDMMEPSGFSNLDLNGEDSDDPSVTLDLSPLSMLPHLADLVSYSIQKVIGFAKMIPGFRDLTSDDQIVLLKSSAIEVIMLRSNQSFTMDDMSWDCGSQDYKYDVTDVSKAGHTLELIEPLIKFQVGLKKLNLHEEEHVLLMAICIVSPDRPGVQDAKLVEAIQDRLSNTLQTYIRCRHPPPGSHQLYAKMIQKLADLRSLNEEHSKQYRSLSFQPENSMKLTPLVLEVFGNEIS
Outline: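 Purified His-tagged receptor from E. coli, diluted in TEDK50 (pH 7.4, 5 mM DTT, 150 mM KCl) with 0.1% Chaps, set so ≤20% of radioligand bound. Competition against 1 nM final 3H-1,25(OH)2D3, ethanol ≤10%, overnight on ice; bound ligand collected on hydroxylapatite, washed, counted by scintillation.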

Structure (SMILES): C=C1/C(=C\C=C2/CCC[C@]3(C)[C@@H]([C@H](C)CCCC(C)(C)O)CC[C@@H]23)C[C@@H](O)C[C@@H]1O [1α,25(OH)2D3, 1α,25-dihydroxyvitamin D3, reference compound]
- cells induced to differentiate in the NBT assay [1]: ~90%
- intestinal calcium transport activity ([2]; listed as calcitriol): quite potent; also recorded: active
- bone calcium mobilization activity ([3]; listed as calcitriol): quite potent; also recorded: active
- increase in serum calcium [4]: frank hypercalcemia and even death
- inhibition of differentiation of 3T3-L1 cells into mature adipocytes (Oil-Red-O staining) [5]: inhibit; also recorded: inhibition
- EC50 [6]: 0.2 nM
- inhibition of SCD-1 mRNA induction [6]: inhibition
- PPARγ mRNA induction by MDI [7]: not induced
- C/EBPα mRNA induction by MDI [8]: not induced

- binding to the vitamin D receptor, compared to 1α,25(OH)2D3 ([9]; listed as 1α-(20S)2-MbisP): nearly the same affinity
- binding to the vitamin D receptor, compared to 1α,25(OH)2D3 ([9]; listed as (20S)2-MbisP): as or nearly effective as calcitriol
- intestinal calcium transport activity [2]: little, if any, activity
- bone calcium mobilization activity [3]: little, if any, activity
- EC50 ([6]; SCD-1 mRNA at 4 days): ~0.54 nM
Structure (SMILES): C=C1[C@H](O)CC(=C/C=C2\CCC[C@]3(C)[C@@H]([C@@H](C)CC)CC[C@@H]23)C[C@H]1O [2-MbisP]
- increase in serum calcium [4]: without producing an increase in serum calcium
- difference in potency from the native hormone in inhibiting differentiation ([5]; MDI-induced 3T3-L1 cells): < 0.5 log unit
- inhibition of differentiation of 3T3-L1 cells into mature adipocytes (Oil-Red-O staining) [5]: inhibit; also recorded: effective
- inhibition of differentiation of 3T3-L1 cells into mature adipocytes (Oil-Red-O staining) ([5]; listed as 1α-(20S)2-MbisP): nearly equipotent
- inhibition of differentiation of 3T3-L1 cells into mature adipocytes (Oil-Red-O staining) ([5]; listed as (1α,20S)2MbisP): inhibition
- inhibition of differentiation of 3T3-L1 cells into mature adipocytes (Oil-Red-O staining) ([5]; listed as (20S)2-MbisP): nearly as potent as the native hormone
- inhibition of differentiation of 3T3-L1 cells into mature adipocytes (Oil-Red-O staining) ([5]; listed as (20S)2M-bisP): inhibition
- inhibition of differentiation of 3T3-L1 cells into mature adipocytes (Oil-Red-O staining) ([5]; listed as (20S)2MbisP): inhibition
- inhibition of differentiation of MDI-treated 3T3-L1 cells (oil-red-O staining) ([5]; tested at 1×10^−8.5 M): active
- times less potent than the native hormone 1,25-(OH)2D3 ([6]; inhibition of SCD-1 mRNA induction): 2 to 3 times
- inhibition of SCD-1 mRNA induction ([6]; listed as (1α,20S)2MbisP): inhibition
- inhibition of SCD-1 mRNA induction ([6]; listed as (20S)2-MbisP): nearly as potent as the native hormone
- inhibition of SCD1 mRNA induction ([6]; tested at 1×10^−8.5 M): active
- PPARγ mRNA induction by MDI [7]: not induced
- C/EBPα mRNA induction by MDI [8]: not induced

Source: patent US8188064B2, “Vitamin D analogs for obesity prevention and treatment” (Wisconsin Alumni Research Foundation, priority 2003, dated 2012)
